Patent US20170340636A1, “COMPOSITIONS AND METHODS FOR INHIBITION OF AUTOPHAGY” (Board of Regents, The University of Texas System, priority 2016, published 2017)

Columns and labels:
[1] = system: p38 and ASK1; test: DSF selectivity for TAOK2 over small panel of other MAPK cascade members; type: binding; details: versus p38 and ASK1
Method: (§1) Differential scanning fluorimetry binding assays of selected compounds against TAOK2 were conducted to measure strength of compound binding. A solution of 5 μM TAOK2, 50 mM MgCl2, 50 mM HEPES pH 7.5, and 2.5x SyproOrange(Life Technologies) was made. Compound was added to a final concentration of 1 μM. 25 μl of the reaction solution was added to the wells of a Biorad Multiplate 96 wellclear PCR plate. The plate was covered with a Biorad Microseal ‘B’ seal. Plates were read in a Biorad CFX96 Real-Time PCR system. The temperature was increased from 4° C. to 80° C., with fluorescence measurements being taken every 0.5° C. in the 6-FAM Fluorescein channel. The fluorescence response to heat curve was fit to a binding isotherm in order to determine the inflection point, which was taken as the melt temperature (Tm).
(§2) The difference between the TAOK2 ΔTm and that of p38 and ASK1 was determined. […] The majority of the other compounds were also preferentially inhibitory toward TAOK2. Of the 13 compounds, SW034538, SW172006 and SW083688 were cross-verified for selectivity by performing a specificity screen against 45 kinases commercially at Eurofins Cerep, Inc. (FIG. 3).

[2] = molecular target: T1, ASK1 (Homo sapiens, UniProt Q99683); test: DSF against ASK1 (selectivity panel of MAPK cascade members); type: binding; details: difference between the TAOK2 ΔTm and that of ASK1, DSF
T1 sequence (Q99683 1-1374): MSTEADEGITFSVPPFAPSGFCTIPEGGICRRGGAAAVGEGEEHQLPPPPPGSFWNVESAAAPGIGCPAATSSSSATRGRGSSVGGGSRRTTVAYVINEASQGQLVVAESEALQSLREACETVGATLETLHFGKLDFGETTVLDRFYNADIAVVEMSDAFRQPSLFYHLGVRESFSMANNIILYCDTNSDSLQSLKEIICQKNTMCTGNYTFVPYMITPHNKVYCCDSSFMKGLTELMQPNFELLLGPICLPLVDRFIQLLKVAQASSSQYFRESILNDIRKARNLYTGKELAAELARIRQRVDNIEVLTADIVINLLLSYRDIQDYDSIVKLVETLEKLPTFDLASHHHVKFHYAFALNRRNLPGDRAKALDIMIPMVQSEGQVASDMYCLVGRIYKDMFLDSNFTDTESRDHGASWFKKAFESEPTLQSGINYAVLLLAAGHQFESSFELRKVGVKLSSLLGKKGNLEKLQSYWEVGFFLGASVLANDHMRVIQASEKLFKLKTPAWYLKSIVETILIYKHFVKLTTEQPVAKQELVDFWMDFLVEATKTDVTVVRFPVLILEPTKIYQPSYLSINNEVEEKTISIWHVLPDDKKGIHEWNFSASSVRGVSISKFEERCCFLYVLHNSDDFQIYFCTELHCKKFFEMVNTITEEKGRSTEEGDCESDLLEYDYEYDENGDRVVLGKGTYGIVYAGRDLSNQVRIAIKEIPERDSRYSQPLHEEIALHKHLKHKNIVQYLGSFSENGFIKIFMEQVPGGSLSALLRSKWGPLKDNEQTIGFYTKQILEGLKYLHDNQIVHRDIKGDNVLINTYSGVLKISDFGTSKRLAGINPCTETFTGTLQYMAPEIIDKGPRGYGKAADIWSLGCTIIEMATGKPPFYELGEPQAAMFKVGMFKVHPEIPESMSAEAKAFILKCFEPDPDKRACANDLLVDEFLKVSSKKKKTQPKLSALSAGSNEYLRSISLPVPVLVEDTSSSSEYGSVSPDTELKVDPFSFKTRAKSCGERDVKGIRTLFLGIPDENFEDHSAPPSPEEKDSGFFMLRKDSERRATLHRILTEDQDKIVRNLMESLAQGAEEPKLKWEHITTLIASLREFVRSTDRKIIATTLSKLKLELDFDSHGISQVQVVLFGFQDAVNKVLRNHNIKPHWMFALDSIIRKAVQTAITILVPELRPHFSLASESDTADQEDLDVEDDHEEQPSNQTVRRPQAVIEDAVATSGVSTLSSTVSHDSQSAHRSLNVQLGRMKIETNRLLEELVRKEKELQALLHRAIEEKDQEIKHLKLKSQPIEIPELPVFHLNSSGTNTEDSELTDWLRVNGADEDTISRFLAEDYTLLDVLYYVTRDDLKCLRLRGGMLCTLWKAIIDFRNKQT
Method: as §1, §2

| Compound | selectivity for TAOK2 according to DSF [1] | ΔΔTm (ASK1) [2] |
| --- | --- | --- |
| CCC(=O)Nc1nc(C)c(-c2csc(Nc3cc(OC)ccc3OC)n2)s1 [SW034538] | selective | 2.7 °C |
| CS(=O)(=O)c1ccc2nc(NC(=O)CCCOc3ccc(Cl)cc3)sc2c1 [SW172006] | selective | 1.2 °C |
| CCOCCCn1c(=S)[nH]c2cc(C(=O)NCC3COc4ccccc4O3)ccc2c1=O (stereo not drawn) [SW083688] | selective | 2.1 °C |
